For this assay, the target named is T1, WIZ (Homo sapiens, UniProt O95785+Q96SW2).
T1 construct: expressed in transfected cells
In words: Quantification of WIZ protein levels in HiBit tag fusion protein assay (293T cells). It is filed as cell-based. On the set-up: Dmax: dose or concentration left out as unconfirmed. The note with it: for remaining activity at 25 µM: read-out: WIZ Amax; for DC50: WIZ HiBit assay in 293T cells, about 18 hours, 10-point 5-fold dilution, top 25 μM, read-out: WIZ AC50. The method, then:
The HiBit system from Promega was used to develop high-throughput and quantitative assays to measure changes in WIZ protein levels in response to compounds. The HiBit tag was derived from a split Nanoluciferase and has the following protein sequence: […] (SEQ ID NO: 1). The complementary fragment of Nanoluciferase (known as LgBit, from Promega), was added to the HiBit tag to form an active Nanoluciferase enzyme whose activity can be precisely measured. In this way, the levels of a fusion protein with the HiBit tag can be quantified in cell lysates.
Lentiviral vectors, based on the Invitrogen™ pLenti6.2/V5 DEST backbone were constructed that places the HiBit tag upstream of WIZ and expressed the fusion protein from an HSVTK promotor.
To ensure moderate and consistent expression of the HiBit-WIZ fusion protein across all cells in the population, stable cell lines were constructed from cells harboring a single copy of the construct. Lentivirus packaged with the constructs were made using the ViraPowerTMkit from Invitrogen™. 293T cells from ATCC (Catalog number: CRL-3216), were infected with the virus at low multiplicity of infection and selected by 5 μg/mL blasticidin in culture media for 2 weeks.
The levels of HiBit-WIZ tagged fusion proteins in compound-treated cell lines were measured as follows:
On day 1, cells were diluted to 1.0×10^6 cells/ml in normal growth medium. 20 μL of cell suspension were plated in each well of a solid white 384-well plate. Plates were incubated overnight in a 37° C. and 5% CO2 humidified tissue culture incubator.
On day 2, serial dilutions of compounds were made in 384-well plates. Compound plates were set up with DMSO in columns 1, 2, 23, 24, and 10-point compound dilution series in column 3-12 and column 13-22. 10 mM stock solution of compound were placed into column 3 or 13 and a 1:5 serial dilution was carried out until there was a 10-point dilution series per compound. 50 nL of diluted compounds were transferred into the plated cells by Echo® (Labcyte) acoustic transfer. The highest concentration of compound was 25 μM. Plates were incubated overnight (about 18 hours) in a 37° C. and 5% CO2 humidified tissue culture incubator.
On day 3, plates were removed from the incubator and allowed to equilibrate at room temperature for 60 minutes. HiBit substrate (Nano-Glo® HiBit Lytic Detection System, Promega Catalogue number: N3050) was added as described by the manufacturers protocols. Plates were incubated at room temperature for 30 minutes and luminescence was read using an EnVision® reader (PerkinElmer®). Data was analyzed and visualized using the Spotfire® software package.
WIZ Amax reflects the DMSO-normalized, curve-fitted percentage of WIZ-HiBit remaining at 25 uM. It was calculated by normalizing DMSO controls to 100%, parametric curve fitting of the dose response data (10-point, 5-fold), followed by calculation of response at 25 uM using the fitted equation.
Background: The HiBiT peptide binds its large partner to form an active luciferase.

Where [1] appears, read: HEK-293T, read-out: % degradation of WIZ (100 − Amax).

Where two headings read alike, the source gives them in different places.

T1 sequence (O95785 whole entry): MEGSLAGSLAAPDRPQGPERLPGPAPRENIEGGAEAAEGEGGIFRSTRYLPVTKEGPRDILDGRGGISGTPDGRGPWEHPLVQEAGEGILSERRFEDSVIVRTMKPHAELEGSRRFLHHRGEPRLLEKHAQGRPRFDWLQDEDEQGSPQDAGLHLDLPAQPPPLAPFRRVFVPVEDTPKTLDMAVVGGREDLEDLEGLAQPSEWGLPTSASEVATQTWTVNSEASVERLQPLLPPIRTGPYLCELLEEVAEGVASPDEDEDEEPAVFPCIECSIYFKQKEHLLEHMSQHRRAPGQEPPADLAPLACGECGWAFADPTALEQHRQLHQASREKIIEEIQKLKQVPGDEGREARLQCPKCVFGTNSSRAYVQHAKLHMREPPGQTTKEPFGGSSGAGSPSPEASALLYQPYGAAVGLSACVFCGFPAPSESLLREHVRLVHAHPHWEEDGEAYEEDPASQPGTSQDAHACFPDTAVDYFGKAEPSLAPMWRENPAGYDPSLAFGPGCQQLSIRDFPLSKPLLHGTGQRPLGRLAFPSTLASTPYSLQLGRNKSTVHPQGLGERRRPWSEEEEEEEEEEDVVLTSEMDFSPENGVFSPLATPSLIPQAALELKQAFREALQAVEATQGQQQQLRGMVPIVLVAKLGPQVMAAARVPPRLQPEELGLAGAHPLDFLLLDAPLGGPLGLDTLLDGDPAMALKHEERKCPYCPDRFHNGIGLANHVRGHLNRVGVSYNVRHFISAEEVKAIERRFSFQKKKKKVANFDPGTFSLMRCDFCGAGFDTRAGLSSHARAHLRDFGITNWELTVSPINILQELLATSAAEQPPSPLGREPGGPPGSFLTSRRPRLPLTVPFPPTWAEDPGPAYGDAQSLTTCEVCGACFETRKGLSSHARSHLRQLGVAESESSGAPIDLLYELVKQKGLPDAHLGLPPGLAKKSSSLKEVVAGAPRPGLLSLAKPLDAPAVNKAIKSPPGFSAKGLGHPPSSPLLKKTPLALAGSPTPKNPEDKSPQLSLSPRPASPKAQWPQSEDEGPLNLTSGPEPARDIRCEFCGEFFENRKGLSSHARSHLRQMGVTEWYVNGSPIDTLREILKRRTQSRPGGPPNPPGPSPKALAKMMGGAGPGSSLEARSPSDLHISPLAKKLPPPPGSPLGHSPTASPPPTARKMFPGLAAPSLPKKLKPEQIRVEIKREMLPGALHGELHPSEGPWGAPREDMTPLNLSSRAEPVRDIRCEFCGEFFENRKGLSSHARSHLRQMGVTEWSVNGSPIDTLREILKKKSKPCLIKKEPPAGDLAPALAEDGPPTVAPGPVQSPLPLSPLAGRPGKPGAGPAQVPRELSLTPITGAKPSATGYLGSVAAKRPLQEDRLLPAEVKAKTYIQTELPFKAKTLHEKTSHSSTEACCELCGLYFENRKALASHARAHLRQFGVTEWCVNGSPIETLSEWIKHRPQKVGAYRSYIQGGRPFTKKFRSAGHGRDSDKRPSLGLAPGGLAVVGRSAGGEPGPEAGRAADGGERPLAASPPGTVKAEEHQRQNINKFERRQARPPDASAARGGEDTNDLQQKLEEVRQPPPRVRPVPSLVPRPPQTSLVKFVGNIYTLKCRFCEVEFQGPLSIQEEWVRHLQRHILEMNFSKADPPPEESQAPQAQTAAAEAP
T1 sequence (Q96SW2 whole entry): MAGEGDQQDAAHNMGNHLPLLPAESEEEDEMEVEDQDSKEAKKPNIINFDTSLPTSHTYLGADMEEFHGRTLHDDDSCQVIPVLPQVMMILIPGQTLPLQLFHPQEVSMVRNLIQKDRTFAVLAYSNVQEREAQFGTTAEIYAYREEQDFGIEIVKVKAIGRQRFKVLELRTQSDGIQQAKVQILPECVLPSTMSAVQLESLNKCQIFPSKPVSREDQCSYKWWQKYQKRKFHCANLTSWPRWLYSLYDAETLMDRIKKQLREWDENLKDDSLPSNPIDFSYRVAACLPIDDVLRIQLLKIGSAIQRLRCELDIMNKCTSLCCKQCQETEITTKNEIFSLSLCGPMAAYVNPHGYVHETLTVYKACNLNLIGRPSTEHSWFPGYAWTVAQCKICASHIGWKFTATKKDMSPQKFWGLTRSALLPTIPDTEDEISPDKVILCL
T1 sequence (Q16531 whole entry partner): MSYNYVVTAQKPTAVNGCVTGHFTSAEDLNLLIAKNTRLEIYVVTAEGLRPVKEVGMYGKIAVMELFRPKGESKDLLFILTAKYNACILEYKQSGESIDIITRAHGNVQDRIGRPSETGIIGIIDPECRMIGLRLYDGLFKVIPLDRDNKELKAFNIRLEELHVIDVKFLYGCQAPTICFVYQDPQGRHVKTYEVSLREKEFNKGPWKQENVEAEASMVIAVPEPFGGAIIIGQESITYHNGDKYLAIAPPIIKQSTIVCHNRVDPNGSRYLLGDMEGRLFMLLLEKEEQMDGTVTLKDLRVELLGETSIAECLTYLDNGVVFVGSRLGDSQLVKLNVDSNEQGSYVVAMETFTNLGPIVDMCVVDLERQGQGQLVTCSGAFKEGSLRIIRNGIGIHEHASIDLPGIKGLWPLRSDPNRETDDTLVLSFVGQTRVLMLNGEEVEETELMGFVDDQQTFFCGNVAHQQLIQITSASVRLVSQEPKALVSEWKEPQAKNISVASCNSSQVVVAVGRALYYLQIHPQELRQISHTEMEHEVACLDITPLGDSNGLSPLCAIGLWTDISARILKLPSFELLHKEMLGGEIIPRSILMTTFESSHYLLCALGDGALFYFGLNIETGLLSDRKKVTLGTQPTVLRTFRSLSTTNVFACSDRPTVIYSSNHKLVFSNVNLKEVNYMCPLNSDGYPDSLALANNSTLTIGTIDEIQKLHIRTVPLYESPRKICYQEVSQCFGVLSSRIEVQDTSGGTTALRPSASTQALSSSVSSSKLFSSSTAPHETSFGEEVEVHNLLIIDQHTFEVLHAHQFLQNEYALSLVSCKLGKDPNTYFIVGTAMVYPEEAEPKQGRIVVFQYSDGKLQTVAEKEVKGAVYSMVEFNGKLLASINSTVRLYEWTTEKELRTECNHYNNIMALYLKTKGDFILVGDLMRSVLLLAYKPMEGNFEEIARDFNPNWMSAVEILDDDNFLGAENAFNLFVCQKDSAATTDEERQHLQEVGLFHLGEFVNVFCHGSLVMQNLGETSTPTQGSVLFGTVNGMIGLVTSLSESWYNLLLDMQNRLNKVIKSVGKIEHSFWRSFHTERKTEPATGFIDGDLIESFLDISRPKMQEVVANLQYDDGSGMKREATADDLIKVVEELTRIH

For `O=C1CCC(N2Cc3cc(O[C@@H]4CCCN(C5CC(F)(F)C5)C4)ccc3C2=O)C(=O)N1` (mixture of isomers) [Example 29, 3-(5-(((R)-1-(3,3-difluorocyclobutyl)piperidin-3-yl)oxy)-1-oxoisoindolin-2-yl)piperidine-2,6-dione], the DC50 was determined as 82 nM. The remaining activity at 25 µM (HEK-293T, DMSO-normalized, curve-fitted percentage of WIZ-HiBit remaining at 25 uM) stood at 69%. For the same molecule, the Dmax at 25 µM (HEK-293T, at 25 uM, 100 − Amax, read-out: % degradation of WIZ (100 − Amax)) is 31%.

As to `CCN1C[C@H](C)C[C@@H](Oc2ccc3c(c2)CN(C2CCC(=O)NC2=O)C3=O)C1` (mixture of isomers) [Example 75-1, 3-(5-(((3R,5R)-1-ethyl-5-methylpiperidin-3-yl)oxy)-1-oxoisoindolin-2-yl)piperidine-2,6-dione], the DC50 is 0.9 nM. Moreover, the Dmax under setting [1] was 86.6%. Further, where the note is “HEK-293T”, the remaining activity at 25 µM was 13.4%.

With `CCN1C[C@H](O)C[C@@H](Oc2ccc3c(c2)CN(C2CCC(=O)NC2=O)C3=O)C1` (mixture of isomers) [Example 34, rac-3-(5-(((3R,5R)-1-Ethyl-5-hydroxypiperidin-3-yl)oxy)-1-oxoisoindolin-2-yl)piperidine-2,6-dione], the DC50 was determined as 15 nM. For the same molecule, the Dmax under setting [1] was determined as 80%. Further, where the note is “HEK-293T”, the remaining activity at 25 µM amounted to 20%.

Turning to `CCN1CC[C@H](C)[C@@H](Oc2ccc3c(c2)CN(C2CCC(=O)NC2=O)C3=O)C1` (mixture of isomers) [Example 35, rac-3-(5-(((3R,4S)-1-ethyl-4-methylpiperidin-3-yl)oxy)-1-oxoisoindolin-2-yl)piperidine-2,6-dione], the DC50 amounted to 26 nM. Also, the Dmax under setting [1] amounted to 31.9%. Further, the remaining activity at 25 µM (HEK-293T) came out at 68.1%.

As for `CCN1CCC[C@@H](Oc2ccc3c(c2)CN(C2CCC(=O)NC2=O)C3=O)[C@H]1C` (mixture of isomers) [Example 44, rac-3-(5-(((2R,3R)-1-ethyl-2-methylpiperidin-3-yl)oxy)-1-oxoisoindolin-2-yl)piperidine-2,6-dione], the DC50 was 60 nM. For the same molecule, the Dmax under setting [1] is 15.8%. For the same molecule, the remaining activity at 25 µM (HEK-293T) was determined as 84.2%.

As to `CCN1C[C@@H](C)C[C@@H](Oc2ccc3c(c2)CN(C2CCC(=O)NC2=O)C3=O)C1` (mixture of isomers) [Example 45, rac-3-(5-(((3R,5S)-1-ethyl-5-methylpiperidin-3-yl)oxy)-1-oxoisoindolin-2-yl)piperidine-2,6-dione], the DC50 worked out at 7.6 nM. For the same molecule, the Dmax under setting [1] came out at 43.7%. The remaining activity at 25 µM (HEK-293T) came out at 56.3%.

Regarding `CCN1CC[C@@H](C)[C@@H](Oc2ccc3c(c2)CN(C2CCC(=O)NC2=O)C3=O)C1` (mixture of isomers) [Example 46, rac-3-(5-(((3R,4R)-1-ethyl-4-methylpiperidin-3-yl)oxy)-1-oxoisoindolin-2-yl)piperidine-2,6-dione], the DC50 is greater than 25000 nM. Moreover, the remaining activity at 25 µM (HEK-293T) came out at 101%.

With `CCN1C[C@@H](O)C[C@@H](Oc2ccc3c(c2)CN(C2CCC(=O)NC2=O)C3=O)C1` (mixture of isomers) [Example 47, rac-3-(5-(((3R,5S)-1-ethyl-5-hydroxypiperidin-3-yl)oxy)-1-oxoisoindolin-2-yl)piperidine-2,6-dione], the DC50 turned out to be 88 nM. Also, under setting [1], the Dmax was 22.8%. For the setting “HEK-293T”, the remaining activity at 25 µM was found to be 77.2%.

As to `CCN1C[C@H](C)C[C@@H](Oc2ccc3c(c2)CN(C2CCC(=O)NC2=O)C3=O)C1` (mixture of isomers) [Example 52, rac-3-(5-(((3R,5R)-1-Ethyl-5-methylpiperidin-3-yl)oxy)-1-oxoisoindolin-2-yl)piperidine-2,6-dione], the DC50 is 5.5 nM. In addition, under setting [1], the Dmax was found to be 76.2%. The remaining activity at 25 µM (HEK-293T) is 23.8%.

Turning to `CCN1CCC2(CCC2)C(Oc2ccc3c(c2)CN(C2CCC(=O)NC2=O)C3=O)C1` (racemic) [Example 54, rac-3-(5-((7-ethyl-7-azaspiro[3.5]nonan-5-yl)oxy)-1-oxoisoindolin-2-yl)piperidine-2,6-dione], the DC50 was greater than 25000 nM. The remaining activity at 25 µM (HEK-293T) came out at 102%.

For the origin of these results see patent US12103919B2, “3-(5-oxy)-1-oxoisoindolin-2-yl)piperidine-2,6-dione derivatives and uses thereof” (NOVARTIS AG, priority 2021, dated 2024).
